Experiments:
Mus musculus [1] = organism: Mus musculus; assay: The compound was tested for its ability to get to the tumor site after indicates that there is a percent T/C of 50 or < 50(tumor mass 50% or < the control)]; type: functional; parameters: scale not given here
Mus musculus [2] = assay: The compound was tested for its ability to get to the tumor site after subcutaneous administration [Score of 2 indicates that there is a percent T/C of 50 or < 50(tumor mass 50% or < the control)]; type: functional

Row | Compound | Intraperitonal score (Mus musculus [1]) | Subcutaneous score (Mus musculus [2])
1 | CC(=O)N[C@H]1CCn2c1nc1c2C(=O)C(C)=C(N2CC2)C1=O | 38 | 14
2 | CC1=C(N2CC2)C(=O)c2nc3n(c2C1=O)CCC3OC(N)=O (stereo not drawn) | 24 | 6
3 | CC(=O)NC1CCn2c1nc1c2C(=O)C(C)=C(N2CC2)C1=O (stereo not drawn) | 46 | 6
4 | CC(=O)OC1CCn2c1nc1c2C(=O)C(C)=C(N2CC2)C1=O (stereo not drawn) | 40 | 8

Source: ChEMBL document CHEMBL1132656, “Design of highly active analogues of the pyrrolo[1,2-a]benzimidazole antitumor agents” (1999)
